Results reported in patent US20180360856A1, “ANTI-BACTERIAL COMPOUNDS” (Auspherix Limited, priority 2015, published 2018).

What was measured:
E.coli (ATCC 25922) = test: Growth assay variation, E. coli (MIC); type: cell-based; conditions: ATCC 25922, Luria broth, incubation without shaking
Experimental: (§1) Stock solution of the test compounds (20 mg/ml) in dimethyl sulfoxide (DMSO) were serially diluted in DMSO and each diluted compound added in duplicate to a 96-well plate to a final DMSO concentration of 2% (v/v). An overnight culture of S. aureus (Oxford strain) grown in tryptic soy broth (TSB) was diluted to approximately 5×10^7 cfu/ml and 150 μl of this sample was added to each well of the 96-well plates. Control wells included an ‘untreated’ control with bacteria in TSB in the presence of 2% DMSO and a negative sample (containing 150p1 TSB growth media in the presence of 2% DMSO). Plates were incubated in a shaking incubator at 37° C. for 22-24 hours and bacterial growth assessed by absorbance at a wavelength of 595 nm. The minimum inhibitory concentration (MIC) was defined as the lowest concentration of compound that inhibited growth compared to the no-treatment control.
(§2) Klebsiella pneumoniae, Acinetobacter baumannnii or E.coli (ATCC 25922): use of 1/100 overnight dilution to set up assay, medium used: Luria broth (LB); incubation without shaking.

[1] = test system: S. aureus (Oxford strain); test: Growth assay for S. aureus (MIC); type: cell-based; conditions: TSB, 37° C., 22-24 hours
Experimental: as §1

Klebsiella pneumoniae = test: Growth assay variation, Klebsiella pneumoniae (MIC); type: cell-based; conditions: Luria broth, incubation without shaking
Experimental: as §1, §2

[2] = test system: P.aeruginosa (ATCC 27853); test: Growth assay variation, P. aeruginosa (MIC); type: cell-based; conditions: ATCC 27853, CaMHB, incubation without shaking
Experimental: as §1
P.aeruginosa (ATCC 27853): use of 1/100 overnight dilution to set up assay, medium used: Cation adjusted Mueller Hinton broth (CaMHB); incubation without shaking.

[3] = test system: human hepatocyte cell line (HepG2); conditions: 24 h
Experimental: Cell counting kit-8 (Sigma, CCK-8) assays were performed to assess the effect of compounds on cell viability. The assay is based on the reduction of a water-soluble tetrazolium salt (WST-8) by cellular dehydrogenases to a formazan dye which can be detected spectroscopically. 96-well plates were seeded with the human hepatocyte cell line (HepG2) at approximately 8×10^3 cells per well in Eagle's Minimum Essential Medium (EMEM) with Earle's salts and sodium bicarbonate supplemented with 10% heat-inactivated foetal bovine serum 2 mM glutamine and 1% non-essential amino acids (NEAA). The following day serial dilutions of compounds (dissolved and diluted in DMSO) were added to the cells in duplicates. Control wells included an ‘untreated’ control where cells were grown in the presence of 1% DMSO and a ‘medium only’ control (plus 1% DMSO). After 24 hours CCK-8 reagent (10 μl) was added to each well and cell viability was assessed by measuring the absorbance at a wavelength of 450 nm after 2-3h hours. Only living cells can reduce the tetrazolium salts into coloured formazan products. Results were expressed as 50% growth inhibition (TD50) values compared to ‘untreated’ control.

Gram negative bacteria = conditions: cited from earlier work

| Compound | HepG2 cell TD50 [3] [µg/mL] | other results |
| --- | --- | --- |
| CP1CCS(=O)(=O)CC1.[Cl][Au] [Compound I-44, 4-Methyl-[1,4]sulfonylphosphinane gold(I) chloride] |  | E. coli MIC (E.coli (ATCC 25922)): 25 to 100 µg/mL; S. aureus MIC [1]: 6.3 to 25 µg/mL; K. pneumoniae MIC (Klebsiella pneumoniae): 50 to 100 µg/mL; P. aeruginosa MIC [2]: 6.3 to 50 µg/mL |
| C[P](C)(C)=[Au][S]c1ncco1 [Compound 4] | 4 |  |
| Cc1nnc([S][Au]=[P](C)(C)C)n1C [Compound 1] | 2 |  |
| CNC(=O)C[S][Au]=[P](C)(C)C [Compound 2] | 6 |  |
| C[P]1(=[Au][S]c2ccccc2C(=O)O)CCOCC1 [Compound 29] | 35 |  |
| C[P](C)(C)=[Au][S]c1ccc(C(=O)O)cc1 [Compound 26] | 13 |  |
| C[P](C)(C)=[Au][S]c1nnn[nH]1 [Compound 15] | 23 |  |
| C[P](C)(C)=[Au][S]c1cccc(S(C)(=O)=O)c1 [Compound 34] | 1 |  |
| CC[P](CC)(CC)=[Au][S][C@@H]1O[C@H](COC(C)=O)[C@@H](OC(C)=O)[C@H](OC(C)=O)[C@H]1OC(C)=O [Auranofin] |  | activity against the majority of Gram negative bacteria (Gram negative bacteria): not been shown to have any significant activity |
| C[P](C)(C)=[Au][S]c1ccc(F)cc1C(=O)O [Compound 18] | 18 |  |
| Dimethyl[2-(methyl)thiazole]phosphine gold(I) chloride [Compound I-49] |  | E. coli MIC (E.coli (ATCC 25922)): 6.3 to 12.5 µg/mL; S. aureus MIC [1]: ≤0.8 to 1.6 µg/mL; K. pneumoniae MIC (Klebsiella pneumoniae): 12.5 to 25 µg/mL; P. aeruginosa MIC [2]: 25 µg/mL |
| COc1ccc([S][Au]=[P](C)(C)C)cc1 [Compound 17] | 3.5 |  |
| C[P](C)(C)=[Au][S]c1cc(C(F)(F)F)ccn1 [Compound 14] | 3 |  |
| C[P](C)(C)=[Au][S]c1ccccc1C(F)(F)F [Compound 9] | 3 |  |
| CC[P](C)(C)=[Au][S]c1ncco1 [Compound 12] | 5 |  |
| COc1ccc([S][Au]=[P](C)(C)C)cc1OC [Compound 5] | 3 |  |
| CC(=O)Oc1ccc([S][Au]=[P](C)(C)C)cc1OC(C)=O [Compound 23] | 2 |  |
| C[P](C)(C)=[Au][S]c1ccc(S(C)(=O)=O)cc1 [Compound 11] | 2 |  |

| Compound | HepG2 cell TD50 [3] [µg/mL] | other results |
| --- | --- | --- |
| C[P]1(=[Au][S]c2nnn[nH]2)CCCC1 [Compound 32] | 11 |  |
| C[P]1(=[Au][S]c2ccc(F)cc2C(=O)O)CCCCC1 [Compound 30] | 19 |  |
| C[P](C)(C)=[Au][S]c1ccccc1C(=O)O [Compound 6] | 11.5 |  |
| C[P](C)(C)=[Au][S]c1cccc(C(F)(F)F)c1 [Compound 8] | 3 |  |
| CCOC(=O)CNC(=O)[C@H](C[S][Au]=[P](C)(C)C)NC(=O)CC[C@H](NC(C)=O)C(=O)OCC [Compound 3] | 32 |  |
| C[P](C)(C)=[Au][S]C1CCC(F)(F)CC1 [Compound 35] | 4 |  |
| COc1cccc([S][Au]=[P](C)(C)C)c1 [Compound 10] | 2 |  |
| C[P](C)(C)=[Au][S]c1ncc[nH]1 [Compound 7] | 6 |  |
| C[P]1(=[Au][S]c2ccccc2C(=O)O)CCCC1 [Compound 28] | 11 |  |
| C[P]1(=[Au][S]c2nnn[nH]2)CCCCC1 [Compound 31] | 45 |  |
| C[P](C)(C)=[Au][S]c1ccc(C(N)=O)cn1 [Compound 16] | 17 |  |
| C[P](C)(C)=[Au][S]c1ccc(C(F)(F)F)cn1 [Compound 13] | 2.5 |  |
| Cn1nnnc1C[S][Au]=[P](C)(C)C [Compound 33] | 4 |  |
| C[P](C)(C)=[Au][S]c1cccc(C(=O)O)c1 [Compound 25] | 22 |  |
| Dimethyl[2-(methyl)oxazole]phosphine gold(I) chloride [Compound I-50] |  | E. coli MIC (E.coli (ATCC 25922)): 6.3 to 12.5 µg/mL; S. aureus MIC [1]: 1.6 to 3.1 µg/mL; K. pneumoniae MIC (Klebsiella pneumoniae): 12.5 to 25 µg/mL; P. aeruginosa MIC [2]: 12.5 to 25 µg/mL |
| C[P]1(=[Au][S]c2ccccc2C(=O)O)CCCCC1 [Compound 27] | 22 |  |
| CC[P](C)(C)=[Au][S]c1ccccc1C(=O)O [Compound 36] |  | S. aureus MIC [1]: <0/8 |
